Laboratory results reported in patent publication US20080139525A1, “ANTIOXIDANT THERAPIES” (The Brigham and Women's Hospital, Inc., priority 2006, published 2008).

Legend:
rat hearts = assay: No-flow ischemia-reperfusion of hearts after 2 weeks of Se supplementation (Example 2); assay type: in vivo; conditions: 23 μM M40403 in perfusate with sodium selenite 50 μg/kg/day for 2 weeks; compared to M40403 without sodium selenite
Description: Hearts were isolated from rats and perfused in the Langendorff mode as previously described (Jain et al., Am J Physiol. 2001; 280:H569-H575; Lim et al., Am J Physiol. 1999; 277:H2083-H2090). Briefly, animals were injected intraperitoneally with heparin (10,000 U/kg) and anesthetized with a mixture of ketamine (150 mg/kg) and xylazine (15 mg/kg). The thorax was rapidly opened and the heart excised and arrested in ice-cold saline. A short perfusion cannula was inserted into the aortic root to initiate retrograde perfusion. The hearts were perfused with Krebs-Henseleit buffer (in mmol/L: NaCl 118, KCl 4.7, CaCl2 1.8, KH2PO4 1.2, MgSO4 1.2, NaHCO3 24.0, and glucose 10.0) equilibrated with 95% O2/5% CO2 to yield a pH of 7.4. A thin cannula was pierced through the apex of the left ventricle (LV) to vent thebesian drainage. A ventricular balloon, composed of polyvinyl chloride film and connected to a polyethylene tube, was inserted into the LV through the mitral valve via an incision in the left atrium. […]
Hearts were treated first for 2 weeks with or without Se supplementation (as sodium selenite, 50 μg/kg/day), after which they were subjected to no-flow ischemia-reperfusion with 23 μM of the SOD mimetic M40403 added to the perfusate. EDP and DevP (as measures of ventricular performance) were monitored over time following restoration of perfusion. […]

[1] = tested on: isolated rat hearts (wild-type and GPx-TG); assay: Langendorff isolated heart, zero-flow ischemia followed by reperfusion (Example 1); assay type: ex vivo; conditions: compared with vehicle control
Description: Hearts were isolated from rats and perfused in the Langendorff mode as previously described (Jain et al., Am J Physiol. 2001; 280:H569-H575; Lim et al., Am J Physiol. 1999; 277:H2083-H2090). Briefly, animals were injected intraperitoneally with heparin (10,000 U/kg) and anesthetized with a mixture of ketamine (150 mg/kg) and xylazine (15 mg/kg). The thorax was rapidly opened and the heart excised and arrested in ice-cold saline. A short perfusion cannula was inserted into the aortic root to initiate retrograde perfusion. The hearts were perfused with Krebs-Henseleit buffer (in mmol/L: NaCl 118, KCl 4.7, CaCl2 1.8, KH2PO4 1.2, MgSO4 1.2, NaHCO3 24.0, and glucose 10.0) equilibrated with 95% O2/5% CO2 to yield a pH of 7.4. A thin cannula was pierced through the apex of the left ventricle (LV) to vent thebesian drainage. A ventricular balloon, composed of polyvinyl chloride film and connected to a polyethylene tube, was inserted into the LV through the mitral valve via an incision in the left atrium. The balloon was connected to a pressure transducer (Statham P23Db, Gould) for recording of LV pressures. The balloon was inflated with saline to adjust the end-diastolic pressure (EDP) to 10 mm Hg, and the balloon volume was held constant for the duration of the experiment. Hearts were paced (Grass Instruments) with platinum wires placed on the epicardial surface of the right ventricle. Coronary perfusion pressure was held constant during the duration of the experiment at 80 mm Hg. An inline ultrasonic flow probe (Transonics Systems Inc) was positioned immediately above the aortic cannula to measure coronary flow. Systolic pressure, EDP, and coronary flow were collected online by use of a commercially available data acquisition system (PowerLab ADInstruments). Developed pressure (DevP) (the difference between systolic and diastolic pressures) and EDP were used as indices of contractile and diastolic function, respectively.
During 20 minutes of baseline stabilization, all hearts were maintained at 37° C. and paced at 7 Hz. Hearts were subsequently subjected to 15 minutes of zero-flow ischemia followed by 30 minutes of reperfusion with or without a reperfusion solution containing 23 μM of the SOD mimetic M40403. The EDP was higher and DevP was lower in the wild-type (WT) rats with this treatment compared with vehicle control.

[2] = GPx-TG (glutathione peroxidase-1 transgene) with added dietary selenium, 23 μM M40403 in reperfusion solution
[3] = wild-type (WT) rats, 15 min zero-flow ischemia, 30 min reperfusion with 23 μM M40403

`[Cl-].[Cl-].[Mn+2].c1cc2nc(c1)CN[C@@H]1CCCC[C@H]1NCCN[C@@H]1CCCC[C@H]1NC2` [M40403] was tested, and the “end-diastolic pressure (EDP)” value (rat hearts) was “improved EDP (i.e., lower EDP)”, the “developed pressure (DevP)” value [1, 2] was “no change” and the “end-diastolic pressure (EDP)” value [1, 2] was “improved EDP (i.e., lower EDP)”. For the same compound, the “developed pressure (DevP)” value [1, 3] was “lower” and the “end-diastolic pressure (EDP)” value [1, 3] was “higher”.
